According to ChEMBL document CHEMBL4613236, “Magnoflorine from Coptis chinese has the potential to treat DNCB-induced Atopic dermatits by inhibiting apoptosis of keratinocyte” (Bioorg Med Chem, 2020):
The source made the active and inactive calls. The rule behind the calls is not given here.

Tests used:
HaCaT [1] = experiment: Inhibition of TNF-alpha/IFN-gamma-induced apoptosis in human HaCaT cells after 24 hrs by Annexin V-FITC/propidium iodide double staining-based flow cytometry; assay type: functional, cell-based
HaCaT [2] = experiment: Cytotoxicity against human HaCaT cells assessed as reduction in cell viability after 24 hrs by MTT assay; assay type: cell-based
HaCaT [3] = experiment: Inhibition of TNF-alpha/IFN-gamma-induced apoptosis in human HaCaT cells assessed as apoptotic rate at 1500 ug/ml after 24 hrs by Annexin V-FITC/propidium iodide double staining-based flow cytometry (reference value: 42.9%); assay type: functional; set-up: scale not given: the % may be the effect or the level left
Mus musculus [4] = experiment: Protection against DNCB-induced skin inflammation in BALB/c mouse model of atopic dermatitis assessed as reduction in skin erythema at 0.1 g/ml administered topically once daily for 16 days measured post last dose; assay type: functional, organism-based
Mus musculus [5] = experiment: Protection against DNCB-induced skin inflammation in BALB/c mouse model of atopic dermatitis assessed as reduction in skin erosion at 0.1 g/ml administered topically once daily for 16 days measured post last dose; assay type: functional, organism-based
Mus musculus [6] = experiment: Protection against DNCB-induced skin inflammation in BALB/c mouse model of atopic dermatitis assessed as reduction in skin dryness at 0.1 g/ml administered topically once daily for 16 days measured post last dose; assay type: functional, organism-based
Mus musculus [7] = experiment: Protection against DNCB-induced skin inflammation in BALB/c mouse model of atopic dermatitis assessed as number of caspase-3 positive cells at 0.1 g/ml administered topically once daily for 16 days measured post last dose by […] based light microscopic analysis (reference value: 1054 +/- 74.9); assay type: functional
HaCaT [8] = experiment: Inhibition of TNFalpha/IFN-gamma-induced apoptosis in human HaCaT cells assessed as change in mitochondrial membrane potential at 500 ug/ml after 24 hrs by DiOC6 probe based flow cytometric analysis (reference value: 15.36 +/- 0.76); assay type: functional
HaCaT [9] = experiment: Inhibition of TNFalpha/IFN-gamma-induced apoptosis in human HaCaT cells assessed as increase in mitochondrial membrane potential after 24 hrs by DiOC6 probe based flow cytometric analysis; assay type: functional, cell-based
HaCaT [10] = experiment: Inhibition of TNFalpha/IFN-gamma-induced apoptosis in human HaCaT cells assessed as rounded nuclei with sharp edges at 500 to 1500 ug/ml after 24 hrs by Hoechst staining based fluorescence microscopic analysis; assay type: functional, cell-based
HaCaT [11] = experiment: Inhibition of TNFalpha/IFN-gamma-induced apoptosis in human HaCaT cells assessed as increase in Bid expression at 500 ug/ml after 24 hrs by Western blot analysis; assay type: functional, cell-based
HaCaT [12] = experiment: Inhibition of TNFalpha/IFN-gamma-induced apoptosis in human HaCaT cells assessed as increase in cytochrome C expression at 500 ug/ml after 24 hrs by Western blot analysis; assay type: functional, cell-based
HaCaT [13] = experiment: Inhibition of TNFalpha/IFN-gamma-induced apoptosis in human HaCaT cells assessed as increase in caspase 3 expression at 500 ug/ml after 24 hrs by Western blot analysis; assay type: functional, cell-based
HaCaT [14] = experiment: Inhibition of TNFalpha/IFN-gamma-induced apoptosis in human HaCaT cells assessed as increase in caspase 7 expression at 500 ug/ml after 24 hrs by Western blot analysis; assay type: functional, cell-based
HaCaT [15] = experiment: Inhibition of TNFalpha/IFN-gamma-induced apoptosis in human HaCaT cells assessed as increase in caspase 8 expression at 500 ug/ml after 24 hrs by Western blot analysis; assay type: functional, cell-based
HaCaT [16] = experiment: Inhibition of TNFalpha/IFN-gamma-induced apoptosis in human HaCaT cells assessed as increase in caspase 9 expression at 500 ug/ml after 24 hrs by Western blot analysis; assay type: functional, cell-based
HaCaT [17] = experiment: Inhibition of TNFalpha/IFN-gamma-induced apoptosis in human HaCaT cells assessed as increase in cathepsin B expression at 500 ug/ml after 24 hrs by Western blot analysis; assay type: functional, cell-based
[18] = Toxicity in DNCB-induced skin inflammation in BALB/c mouse model of atopic dermatitis assessed as effect on organs at 0.1 g/ml administered topically once daily for 16 days; conditions: in vivo, topical_or_ocular, 384 h
Mus musculus [19] = experiment: Protection against DNCB-induced skin inflammation in BALB/c mouse model of atopic dermatitis assessed as reduction in IgE level at 0.1 g/ml administered topically once daily for 16 days measured post last dose by ELISA; assay type: functional, organism-based
Mus musculus [20] = experiment: Protection against DNCB-induced skin inflammation in BALB/c mouse model of atopic dermatitis assessed as reduction in IL4 level at 0.1 g/ml administered topically once daily for 16 days measured post last dose by ELISA; assay type: functional, organism-based
Mus musculus [21] = experiment: Protection against DNCB-induced skin inflammation in BALB/c mouse model of atopic dermatitis assessed as reduction in spleen index at 0.1 g/ml administered topically once daily for 16 days measured post last dose; assay type: functional, organism-based
Mus musculus [22] = experiment: Protection against DNCB-induced skin inflammation in BALB/c mouse model of atopic dermatitis assessed as reduction in dermal edema at 0.1 g/ml administered topically once daily for 16 days measured post last dose; assay type: functional, organism-based
Mus musculus [23] = experiment: Protection against DNCB-induced skin inflammation in BALB/c mouse model of atopic dermatitis assessed as reduction in hair follicle disappearance at 0.1 g/ml administered topically once daily for 16 days measured post last dose; assay type: functional, organism-based
HaCaT [24] = experiment: Induction of apoptosis in human HaCaT cells at 500 to 1500 ug/ml after 24 hrs by Hoechst staining based fluorescence microscopic analysis; assay type: cell-based

COc1cc2c(cc1O)-c1cc3ccc(OC)c(OC)c3c[n+]1CC2 [COLUMBAMINE]
inhibition (HaCaT [1]): inactive
Activity (HaCaT [2]): Toxic

COc1ccc2cc3[n+](cc2c1OC)CCc1cc2c(cc1-3)OCO2 [BERBERINE]
inhibition (HaCaT [1]): inactive
Activity (HaCaT [2]): Toxic

COc1ccc2c(c1O)-c1c(O)c(OC)cc3c1[C@H](C2)[N+](C)(C)CC3 [MAGNOFLORINE]
inhibition (HaCaT [1]): Dose-dependent effect
Activity (HaCaT [3]): 22.1%
Activity (Mus musculus [4]): Active
Activity (Mus musculus [5]): Active
Activity (Mus musculus [6]): Active
Activity (Mus musculus [7]): 509.8
Activity (HaCaT [8]): 12.66
inhibition (HaCaT [9]): Dose-dependent effect
inhibition (HaCaT [10]): Active
inhibition (HaCaT [11]): Active
inhibition (HaCaT [12]): Active
inhibition (HaCaT [13]): Active
inhibition (HaCaT [14]): Active
inhibition (HaCaT [15]): Active
inhibition (HaCaT [16]): Active
inhibition (HaCaT [17]): Active
Activity (HaCaT [2]): Non-Toxic
Activity [18]: Non-Toxic
Activity (Mus musculus [19]): Active
Activity (Mus musculus [20]): Active
Activity (Mus musculus [21]): Active
Activity (Mus musculus [22]): Active
Activity (Mus musculus [23]): Active
Activity (HaCaT [24]): Non-Toxic

COc1cc2c(cc1OC)-c1cc3ccc4c(c3c[n+]1CC2)OCO4
inhibition (HaCaT [1]): inactive
Activity (HaCaT [2]): Toxic

COc1cc2c(cc1O)CC[n+]1cc3c(OC)c(OC)ccc3cc1-2 [JATRORRHIZINE]
inhibition (HaCaT [1]): inactive
Activity (HaCaT [2]): Toxic

COc1cc2c(cc1OC)-c1cc3ccc(OC)c(OC)c3c[n+]1CC2 [PALMITINE]
inhibition (HaCaT [1]): inactive
Activity (HaCaT [2]): Toxic

c1c2c(cc3c1OCO3)-c1cc3ccc4c(c3c[n+]1CC2)OCO4 [COPTISINE]
inhibition (HaCaT [1]): inactive
Activity (HaCaT [2]): Toxic
